In PubChem BioAssay AID2060896 (Molecular Pharmacology Branch, DTP, NCI, 2025):

Test system: 941728-121-R-J1-PDC complex spheroid viability
Test: Anticancer human tumor 941728-121-R-J1-PDC patient-derived lung adenocarcinoma cell line growth inhibition [RAS]
Settings: for IC50: curve of first compound; for viability, T/C: stronger effect = lower value
Summary of the method: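 Tumour cells grown as complex spheroids with HUVEC endothelial cells and mesenchymal stem cells, treated with RAS pathway inhibitor combinations. Each agent spans half-log steps from near clinical Cmax, or 10 microM where Cmax is unknown.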

[1] = second compound 0.0316 µM, first compound 0.0316 µM
[2] = second compound 0.0316 µM, first compound 0.1 µM
[3] = second compound 0.0316 µM, first compound 0.316 µM
[4] = second compound 0.0316 µM, first compound 1 µM
[5] = second compound 0.1 µM, first compound 0.0316 µM
[6] = second compound 0.1 µM, first compound 0.1 µM
[7] = second compound 0.1 µM, first compound 0.316 µM
[8] = second compound 0.1 µM, first compound 1 µM
[9] = second compound 0.316 µM, first compound 0.0316 µM
[10] = second compound 0.316 µM, first compound 0.1 µM
[11] = second compound 0.316 µM, first compound 0.316 µM
[12] = second compound 0.316 µM, first compound 1 µM
[13] = second compound 1 µM, first compound 0.0316 µM
[14] = second compound 1 µM, first compound 0.1 µM
[15] = second compound 1 µM, first compound 0.316 µM
[16] = second compound 1 µM, first compound 1 µM
[17] = second compound 3.16 µM, first compound 0.0316 µM
[18] = second compound 3.16 µM, first compound 0.1 µM
[19] = second compound 3.16 µM, first compound 0.316 µM
[20] = second compound 3.16 µM, first compound 1 µM
[21] = second compound 10 µM, first compound 0.0316 µM
[22] = second compound 10 µM, first compound 0.1 µM
[23] = second compound 10 µM, first compound 0.316 µM
[24] = second compound 10 µM, first compound 1 µM
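Also: spheroids exposed to compounds for 7 days before readout.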
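For viability, T/C in this document: 100% = DMSO vehicle control viability.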

## CC(=O)OC12COC1CC(O)C1(C)C(=O)C(O)C3=C(C)C(OC(=O)C(O)C(NC(=O)OC(C)(C)C)c4ccccc4)CC(O)(C(OC(=O)c4ccccc4)C21)C3(C)C (stereo unspecified) + C#Cc1c(F)ccc2cc(O)cc(-c3ncc4c(N5CC6CCC(C5)N6)nc(OCC56CCCN5CC(F)C6)nc4c3F)c12
Second compound 0.0316 µM
  IC50: < 31.6 nM
Second compound 0.1 µM
  IC50: < 31.6 nM
Second compound 0.316 µM
  IC50: < 31.6 nM
Second compound 1 µM
  IC50: < 31.6 nM
Second compound 3.16 µM
  IC50: < 31.6 nM
Second compound 10 µM
  IC50: < 31.6 nM
[1]
  viability, T/C: 39.9%
[2]
  viability, T/C: 39.7%
[3]
  viability, T/C: 39.7%
[4]
  viability, T/C: 37.6%
Second compound 0.0316 µM, first compound 3.16 µM
  viability, T/C: 42.7%
Second compound 0.0316 µM, first compound 10 µM
  viability, T/C: 41.7%
[5]
  viability, T/C: 41.8%
[6]
  viability, T/C: 36.1%
[7]
  viability, T/C: 30.3%
[8]
  viability, T/C: 41.6%
Second compound 0.1 µM, first compound 3.16 µM
  viability, T/C: 38.2%
Second compound 0.1 µM, first compound 10 µM
  viability, T/C: 39.1%
[9]
  viability, T/C: 30.5%
[10]
  viability, T/C: 36.8%
[11]
  viability, T/C: 32.6%
[12]
  viability, T/C: 31.2%
Second compound 0.316 µM, first compound 3.16 µM
  viability, T/C: 33.3%
Second compound 0.316 µM, first compound 10 µM
  viability, T/C: 36.7%
[13]
  viability, T/C: 30.6%
[14]
  viability, T/C: 32.3%
[15]
  viability, T/C: 27.8%
[16]
  viability, T/C: 24.6%
Second compound 1 µM, first compound 3.16 µM
  viability, T/C: 28.1%
Second compound 1 µM, first compound 10 µM
  viability, T/C: 31%
[17]
  viability, T/C: 22.9%
[18]
  viability, T/C: 26.7%
[19]
  viability, T/C: 23.2%
[20]
  viability, T/C: 21.7%
Second compound 3.16 µM, first compound 3.16 µM
  viability, T/C: 22.8%
Second compound 3.16 µM, first compound 10 µM
  viability, T/C: 25.7%
[21]
  viability, T/C: 16.2%
[22]
  viability, T/C: 14.9%
[23]
  viability, T/C: 14.1%
[24]
  viability, T/C: 14%
Second compound 10 µM, first compound 3.16 µM
  viability, T/C: 15.3%
Second compound 10 µM, first compound 10 µM
  viability, T/C: 16%

## CCc1c2c(nc3ccc(O)cc13)-c1cc3c(c(=O)n1C2)COC(=O)[C@]3(O)CC + C#Cc1c(F)ccc2cc(O)cc(-c3ncc4c(N5CC6CCC(C5)N6)nc(OCC56CCCN5CC(F)C6)nc4c3F)c12
Second compound 0.0316 µM
  IC50: 26.2 nM
Second compound 0.1 µM
  IC50: 12.2 nM
Second compound 0.316 µM
  IC50: < 0.949 nM
Second compound 1 µM
  IC50: < 0.949 nM
Second compound 3.16 µM
  IC50: < 0.949 nM
Second compound 10 µM
  IC50: < 0.949 nM
Second compound 0.0316 µM, first compound 0.000949 µM
  viability, T/C: 77.8%
Second compound 0.0316 µM, first compound 0.003 µM
  viability, T/C: 61.1%
Second compound 0.0316 µM, first compound 0.00949 µM
  viability, T/C: 54.1%
Second compound 0.0316 µM, first compound 0.03 µM
  viability, T/C: 49.8%
Second compound 0.0316 µM, first compound 0.0949 µM
  viability, T/C: 51.6%
Second compound 0.0316 µM, first compound 0.3 µM
  viability, T/C: 40.5%
Second compound 0.1 µM, first compound 0.000949 µM
  viability, T/C: 69.4%
Second compound 0.1 µM, first compound 0.003 µM
  viability, T/C: 58.8%
Second compound 0.1 µM, first compound 0.00949 µM
  viability, T/C: 45%
Second compound 0.1 µM, first compound 0.03 µM
  viability, T/C: 53.6%
Second compound 0.1 µM, first compound 0.0949 µM
  viability, T/C: 48.4%
Second compound 0.1 µM, first compound 0.3 µM
  viability, T/C: 39.9%
Second compound 0.316 µM, first compound 0.000949 µM
  viability, T/C: 52.9%
Second compound 0.316 µM, first compound 0.003 µM
  viability, T/C: 42.4%
Second compound 0.316 µM, first compound 0.00949 µM
  viability, T/C: 42.5%
Second compound 0.316 µM, first compound 0.03 µM
  viability, T/C: 42.6%
Second compound 0.316 µM, first compound 0.0949 µM
  viability, T/C: 44.7%
Second compound 0.316 µM, first compound 0.3 µM
  viability, T/C: 34.6%
Second compound 1 µM, first compound 0.000949 µM
  viability, T/C: 34.8%
Second compound 1 µM, first compound 0.003 µM
  viability, T/C: 37.9%
Second compound 1 µM, first compound 0.00949 µM
  viability, T/C: 30.6%
Second compound 1 µM, first compound 0.03 µM
  viability, T/C: 31.8%
Second compound 1 µM, first compound 0.0949 µM
  viability, T/C: 32.4%
Second compound 1 µM, first compound 0.3 µM
  viability, T/C: 29%
Second compound 3.16 µM, first compound 0.000949 µM
  viability, T/C: 25.6%
Second compound 3.16 µM, first compound 0.003 µM
  viability, T/C: 26.1%
Second compound 3.16 µM, first compound 0.00949 µM
  viability, T/C: 26.7%
Second compound 3.16 µM, first compound 0.03 µM
  viability, T/C: 23.5%
Second compound 3.16 µM, first compound 0.0949 µM
  viability, T/C: 21.4%
Second compound 3.16 µM, first compound 0.3 µM
  viability, T/C: 19%
Second compound 10 µM, first compound 0.000949 µM
  viability, T/C: 21.9%
Second compound 10 µM, first compound 0.003 µM
  viability, T/C: 18.5%
Second compound 10 µM, first compound 0.00949 µM
  viability, T/C: 18.6%
Second compound 10 µM, first compound 0.03 µM
  viability, T/C: 14.8%
Second compound 10 µM, first compound 0.0949 µM
  viability, T/C: 13.3%
Second compound 10 µM, first compound 0.3 µM
  viability, T/C: 8.73%

## Nc1ccn(C2OC(CO)C(O)C2(F)F)c(=O)n1 (stereo unspecified) + C#Cc1c(F)ccc2cc(O)cc(-c3ncc4c(N5CC6CCC(C5)N6)nc(OCC56CCCN5CC(F)C6)nc4c3F)c12
Second compound 0.0316 µM
  IC50: 22.3 nM
Second compound 0.1 µM
  IC50: 15.5 nM
Second compound 0.316 µM
  IC50: 5.51 nM
Second compound 1 µM
  IC50: < 3.16 nM
Second compound 3.16 µM
  IC50: < 3.16 nM
Second compound 10 µM
  IC50: < 3.16 nM
Second compound 0.0316 µM, first compound 0.00316 µM
  viability, T/C: 71.5%
Second compound 0.0316 µM, first compound 0.01 µM
  viability, T/C: 54%
[1]
  viability, T/C: 49.6%
[2]
  viability, T/C: 43.4%
[3]
  viability, T/C: 46.3%
[4]
  viability, T/C: 42.6%
Second compound 0.1 µM, first compound 0.00316 µM
  viability, T/C: 72.8%
Second compound 0.1 µM, first compound 0.01 µM
  viability, T/C: 55.1%
[5]
  viability, T/C: 41.7%
[6]
  viability, T/C: 38.3%
[7]
  viability, T/C: 34.5%
[8]
  viability, T/C: 38.2%
Second compound 0.316 µM, first compound 0.00316 µM
  viability, T/C: 51%
Second compound 0.316 µM, first compound 0.01 µM
  viability, T/C: 52.6%
[9]
  viability, T/C: 38.3%
[10]
  viability, T/C: 35.5%
[11]
  viability, T/C: 37.6%
[12]
  viability, T/C: 33.1%
Second compound 1 µM, first compound 0.00316 µM
  viability, T/C: 33.9%
Second compound 1 µM, first compound 0.01 µM
  viability, T/C: 31.9%
[13]
  viability, T/C: 31.6%
[14]
  viability, T/C: 33.2%
[15]
  viability, T/C: 36.8%
[16]
  viability, T/C: 30.3%
Second compound 3.16 µM, first compound 0.00316 µM
  viability, T/C: 30.4%
Second compound 3.16 µM, first compound 0.01 µM
  viability, T/C: 28.7%
[17]
  viability, T/C: 28.5%
[18]
  viability, T/C: 28.3%
[19]
  viability, T/C: 26.1%
[20]
  viability, T/C: 27.7%
Second compound 10 µM, first compound 0.00316 µM
  viability, T/C: 23.6%
Second compound 10 µM, first compound 0.01 µM
  viability, T/C: 21.3%
[21]
  viability, T/C: 20.8%
[22]
  viability, T/C: 18%
[23]
  viability, T/C: 20.2%
[24]
  viability, T/C: 20.1%
